# According to ChEMBL document CHEMBL5338711, “Designing and development of phthalimides as potent anti-tubulin hybrid molecules against malaria” (Eur J Med Chem, 2022):
# Active and inactive are the calls of the source. No cut-off for these calls is given here.
# Experiments:
# Plasmodium falciparum [1] = assay: Antimalarial activity against […] infected in human RBC assessed as inhibition of plasmodial growth at 1 uM by SYBR green dye based spectrofluorometric analysis relative to control; assay type: functional; details: 3D7, Erythrocyte
# Plasmodium falciparum [2] = assay: Antimalarial activity against […] infected in human RBC assessed as inhibition of plasmodial growth at 10 uM by SYBR green dye based spectrofluorometric analysis relative to control; assay type: functional; details: 3D7, Erythrocyte
# Plasmodium falciparum [3] = assay: Antiplasmodial activity against […] incubated for 90 hrs by SYBR green I dye based analysis; assay type: functional, organism-based; details: 3D7, 90 h
# [4] = Cytotoxicity against human U-937 cells assessed as reduction in cell viability incubated for 24 hrs by MTT assay; assay type: toxicity, cell-based
# Plasmodium falciparum [5] = assay: Antimalarial activity against chloroquine-resistant Plasmodium falciparum RKL-9 infected in human RBC assessed as reduction of plasmodial growth by SYBR green dye based spectrofluorometric analysis; assay type: functional, organism-based
# Plasmodium falciparum [6] = assay: Binding affinity to recombinant N-terminal 6His tagged Plasmodium falciparum alpha-1 tubulin expressed in Escherichia coli BL21 assessed as dissociation constant at 0.78 to 75 uM by SPR analysis; details: dose 0.78-75 µM
# Plasmodium berghei [7] = assay: Antimalarial activity against Plasmodium berghei ANKA in BALB/c mouse injected with parasite infected erythrocytes assessed as decrease in parasite load at 30 mg/kg, ip administered daily for 7 days relative to control; assay type: functional; parameters: scale not given: the % may be the effect or the level left; details: time 7 day
# Plasmodium falciparum [8] = assay: Synergistic antimalarial activity against synchronized ring stage Plasmodium falciparum 3D7 infected in human RBC assessed as mean fractional inhibitory concentration at 2:3 ratio of ART to compound incubated for 72 hrs by giemsa staining based flow cytometric analysis; assay type: functional
# Plasmodium falciparum [9] = assay: Induction of mitochondrial membrane depolarization in trophozoite stage Plasmodium falciparum 3D7 infected in human RBC assessed as decrease in red to green fluorescence ratio at IC50 concentration incubated for 3 hrs by JC-1 dye based fluorescence microscopic analysis; assay type: functional, organism-based
# Plasmodium berghei [10] = assay: Antimalarial activity against Plasmodium berghei ANKA in BALB/c mouse injected with parasite infected erythrocytes assessed as reduction in parasitemia at 30 mg/kg, ip administered daily for 7 days and measured after 15 days; assay type: functional, organism-based; details: time 15.0 day
# Plasmodium falciparum [11] = assay: Binding affinity to recombinant N-terminal 6His tagged Plasmodium falciparum beta-tubulin expressed in Escherichia coli BL21 at 0.78 to 75 uM by SPR analysis; details: dose 0.78-75 µM
# Plasmodium berghei [12] = assay: Antimalarial activity against Plasmodium berghei ANKA in BALB/c mouse injected with parasite infected erythrocytes assessed as […] mean survival time at 30 mg/kg, ip administered daily for 7 days and measured after 15 days; assay type: functional; details: time 15 day
# Erythrocyte = assay: Hemolytic activity in human RBC assessed as hemolysis upto 5 uM incubated for 2 hrs; assay type: toxicity, cell-based
# Plasmodium falciparum [13] = assay: (§1) Antiplasmodial activity against synchronized ring stage Plasmodium falciparum 3D7 infected in human RBC assessed as reduction in parasitemia percentage by measuring defect in egress stage at IC50 concentration measured after 60 hrs by giemsa staining based light microscopic analysis; assay type: functional, organism-based
# Plasmodium falciparum [14] = assay: Induction of mitochondrial membrane depolarization in trophozoite stage Plasmodium falciparum 3D7 infected in human RBC assessed as increase in green fluorescence at IC50 concentration incubated for 3 hrs by JC-1 dye based fluorescence microscopic analysis; assay type: functional, organism-based
# Plasmodium falciparum [15] = assay: Antimalarial activity against chloroquine-resistant synchronized late stage trophozoite Plasmodium falciparum RKL-9 infected in human RBC assessed as inhibition of plasmodial growth by giemsa staining based analysis; assay type: functional, organism-based; details: RKL-9, Erythrocyte
# Plasmodium falciparum [16] = assay: Antiplasmodial activity against Plasmodium falciparum 3D7; assay type: functional, organism-based
# Plasmodium falciparum [17] = assay: Antiplasmodial activity against synchronized ring stage Plasmodium falciparum 3D7 infected in human RBC assessed as reduction in parasitemia percentage by measuring defect in invasion stage at IC50 concentration measured after 60 hrs by giemsa staining based light microscopic analysis; assay type: functional, organism-based
# [18] = Therapeutic index, ratio of CC50 for human HepG2 cells to IC50 for chloroquine-sensitive synchronized late stage trophozoite Plasmodium falciparum 3D7 infected in human RBC; assay type: toxicity; details: read-out: TI
# [19] = Cytotoxicity against […] cell upto 500 uM; assay type: toxicity, cell-based; details: human
# Plasmodium falciparum [20] = assay: Antimalarial activity against chloroquine-sensitive synchronized late stage trophozoite Plasmodium falciparum 3D7 infected in human RBC assessed as inhibition of plasmodial growth by giemsa staining based analysis; assay type: functional, organism-based; details: 3D7, Erythrocyte
# Plasmodium falciparum [21] = assay: Binding affinity to recombinant N-terminal 6His tagged Plasmodium falciparum alpha-1 tubulin expressed in Escherichia coli BL21 assessed as thermo-stabilization incubated at 4 to 80 degreeC for 3 mins followed by 5 mins incubation at room temperature by thermal shift assay; details: time 8.0 min
# [22] = Cytotoxicity against human HepG2 cells; assay type: toxicity, cell-based
# Plasmodium falciparum [23] = assay: Synergistic antimalarial activity against synchronized ring stage Plasmodium falciparum 3D7 infected in human RBC assessed as mean fractional inhibitory concentration at 1:4 ratio of ART to compound incubated for 72 hrs by giemsa staining based flow cytometric analysis; assay type: functional
# Plasmodium falciparum [24] = assay: Induction of mitochondrial membrane depolarization in trophozoite stage Plasmodium falciparum 3D7 infected in human RBC assessed as red to green fluorescence ratio at IC50 concentration incubated for 3 hrs by JC-1 dye based spectrofluorometric analysis (reference value: 6.96+/-0.94); assay type: functional
# Plasmodium falciparum [25] = assay: as §1, with “transformation into pyknotic trophozoites” for “parasitemia percentage”, “delay” for “defect”, “ring maturation” for “egress stage”; assay type: functional, organism-based
compound,measurement,setting,value
CCC(C)[C@H](c1nc2ccccc2n1Cc1cn(-c2ccc(F)cc2F)nn1)N1C(=O)c2ccc(C)cc2C1=O (some centres undefined),inhibition at 1 µM,Plasmodium falciparum [1],21%
same,inhibition at 10 µM,Plasmodium falciparum [2],94%
CCC(C)C(c1nc2ccccc2n1Cc1cn(-c2ccc(F)cc2)nn1)N1C(=O)c2ccccc2C1=O (centres undefined),IC50,Plasmodium falciparum [3],0.9 µM
same,CC50 at 24 h,[4],28.8 µM
CCC(C)C(c1nc2ccccc2n1Cc1c[nH]nn1)N1C(=O)c2ccccc2C1=O (centres undefined),IC50,Plasmodium falciparum [3],0.7 µM
same,CC50 at 24 h,[4],2.08 µM
Cc1ccc2c(c1)C(=O)N([C@H](CC(C)C)c1nc3ccccc3n1Cc1c[nH]nn1)C2=O,inhibition at 1 µM,Plasmodium falciparum [1],-64%
same,inhibition at 10 µM,Plasmodium falciparum [2],71%
Cc1ccc2c(c1)C(=O)N([C@H](CC(C)C)c1nc3ccccc3n1Cc1cn(-c3ccc(Cl)cc3)nn1)C2=O,Activity,Plasmodium falciparum [5],Dose dependent effect
same,Activity,Plasmodium falciparum [6],inactive
same,Activity,Plasmodium berghei [7],3.6%
same,FIC,Plasmodium falciparum [8],0.87
same,Activity,Plasmodium falciparum [9],Active
same,Activity,Plasmodium berghei [10],Active
same,Activity,Plasmodium falciparum [11],inactive
same,MST,Plasmodium berghei [12],11.07 days
same,Activity,Erythrocyte,Non-Toxic
same,Activity,Plasmodium falciparum [13],Active
same,inhibition at 1 µM,Plasmodium falciparum [1],43%
same,Activity,Plasmodium falciparum [14],Active
same,IC50,Plasmodium falciparum [15],1.71 µM
same,IC50,Plasmodium falciparum [16],0.64 µM
same,Activity,Plasmodium falciparum [17],Active
same,selectivity ratio,[18],> 135
same,inhibition at 10 µM,Plasmodium falciparum [2],73%
same,Activity,[19],Non-Toxic
same,IC50,Plasmodium falciparum [20],0.74 µM
same,Activity,Plasmodium falciparum [21],Active
same,IC50,[22],> 100 µM
same,FIC,Plasmodium falciparum [23],0.98
same,Activity,Plasmodium falciparum [24],4.62
CCC(C)[C@H](c1nc2ccccc2n1Cc1cn(-c2c(F)c(F)c(F)c(F)c2F)nn1)N1C(=O)c2ccccc2C1=O (some centres undefined),inhibition at 1 µM,Plasmodium falciparum [1],-44%
same,inhibition at 10 µM,Plasmodium falciparum [2],77%
CC(C)CC(c1nc2ccccc2n1Cc1cn(-c2ccccc2)nn1)N1C(=O)c2ccccc2C1=O (centres undefined),IC50,Plasmodium falciparum [3],0.9 µM
same,CC50 at 24 h,[4],0.91 µM
CC(C)[C@H](c1nc2ccccc2n1Cc1cn(-c2c(F)cccc2F)nn1)N1C(=O)c2ccccc2C1=O,inhibition at 1 µM,Plasmodium falciparum [1],-26%
same,inhibition at 10 µM,Plasmodium falciparum [2],91%
CC(C)[C@H](c1nc2ccccc2n1Cc1cn(-c2ccc(F)cc2F)nn1)N1C(=O)c2ccccc2C1=O,inhibition at 1 µM,Plasmodium falciparum [1],-12%
same,inhibition at 10 µM,Plasmodium falciparum [2],88%
CCC(C)[C@H](c1nc2ccccc2n1Cc1cn(Cc2ccccc2)nn1)N1C(=O)c2ccccc2C1=O (some centres undefined),Activity,Plasmodium falciparum [5],Dose dependent effect
same,Activity,Plasmodium falciparum [9],Active
same,Activity,Erythrocyte,Non-Toxic
same,inhibition at 1 µM,Plasmodium falciparum [1],35%
same,Activity,Plasmodium falciparum [14],Active
same,IC50,Plasmodium falciparum [15],1.88 µM
same,selectivity ratio,[18],123
same,inhibition at 10 µM,Plasmodium falciparum [2],66%
same,Activity,[19],Non-Toxic
same,IC50,Plasmodium falciparum [20],0.81 µM
same,IC50,[22],> 100 µM
same,FIC,Plasmodium falciparum [23],0.67
same,Activity,Plasmodium falciparum [25],Active
CCC(C)[C@H](c1nc2ccccc2n1Cc1cn(-c2ccccc2F)nn1)N1C(=O)c2ccc(C)cc2C1=O (some centres undefined),inhibition at 1 µM,Plasmodium falciparum [1],-23%
same,inhibition at 10 µM,Plasmodium falciparum [2],91%
